# ChEMBL document CHEMBL3991601, “The target landscape of clinical kinase drugs” (Science, 2017)
# Activity calls are given as the source filed them. For most assays here, no stated cut-off is given here; in the data, actives have a measured Kd and inactives only a lower limit.
# What was measured:
# [1] = target: U5 small nuclear ribonucleoprotein 200 kDa helicase (Homo sapiens, UniProt O75643)
# ADP/ATP translocase 2 = target: T1, ADP/ATP translocase 2 (Homo sapiens, UniProt P05141)
# T1 sequence (P05141 whole entry): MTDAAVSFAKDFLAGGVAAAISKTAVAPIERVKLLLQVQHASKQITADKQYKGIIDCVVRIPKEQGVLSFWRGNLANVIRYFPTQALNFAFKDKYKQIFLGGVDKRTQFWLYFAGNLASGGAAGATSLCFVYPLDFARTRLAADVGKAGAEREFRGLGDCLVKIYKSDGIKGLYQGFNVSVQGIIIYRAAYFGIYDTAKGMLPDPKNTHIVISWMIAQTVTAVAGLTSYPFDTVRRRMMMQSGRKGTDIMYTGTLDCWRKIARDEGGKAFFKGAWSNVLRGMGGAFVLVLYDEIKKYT
# [2] = target: Casein kinase I isoform delta (Homo sapiens, UniProt P48730)
# Sequence of Casein kinase I isoform delta (P48730 whole entry, canonical isoform): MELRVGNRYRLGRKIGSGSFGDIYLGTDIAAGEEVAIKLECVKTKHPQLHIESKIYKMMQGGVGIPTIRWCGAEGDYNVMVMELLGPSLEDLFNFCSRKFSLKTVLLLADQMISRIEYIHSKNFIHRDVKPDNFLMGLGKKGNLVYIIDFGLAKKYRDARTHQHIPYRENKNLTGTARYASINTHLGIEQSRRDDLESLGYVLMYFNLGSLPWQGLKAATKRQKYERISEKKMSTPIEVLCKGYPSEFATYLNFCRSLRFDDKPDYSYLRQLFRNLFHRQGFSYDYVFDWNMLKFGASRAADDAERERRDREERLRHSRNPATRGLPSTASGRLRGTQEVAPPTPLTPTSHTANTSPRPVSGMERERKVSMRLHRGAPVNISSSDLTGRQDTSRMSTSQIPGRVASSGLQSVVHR
# [3] = target: T2, Serine/threonine-protein kinase PLK4 (Homo sapiens, UniProt O00444)
# T2 sequence (O00444 whole entry): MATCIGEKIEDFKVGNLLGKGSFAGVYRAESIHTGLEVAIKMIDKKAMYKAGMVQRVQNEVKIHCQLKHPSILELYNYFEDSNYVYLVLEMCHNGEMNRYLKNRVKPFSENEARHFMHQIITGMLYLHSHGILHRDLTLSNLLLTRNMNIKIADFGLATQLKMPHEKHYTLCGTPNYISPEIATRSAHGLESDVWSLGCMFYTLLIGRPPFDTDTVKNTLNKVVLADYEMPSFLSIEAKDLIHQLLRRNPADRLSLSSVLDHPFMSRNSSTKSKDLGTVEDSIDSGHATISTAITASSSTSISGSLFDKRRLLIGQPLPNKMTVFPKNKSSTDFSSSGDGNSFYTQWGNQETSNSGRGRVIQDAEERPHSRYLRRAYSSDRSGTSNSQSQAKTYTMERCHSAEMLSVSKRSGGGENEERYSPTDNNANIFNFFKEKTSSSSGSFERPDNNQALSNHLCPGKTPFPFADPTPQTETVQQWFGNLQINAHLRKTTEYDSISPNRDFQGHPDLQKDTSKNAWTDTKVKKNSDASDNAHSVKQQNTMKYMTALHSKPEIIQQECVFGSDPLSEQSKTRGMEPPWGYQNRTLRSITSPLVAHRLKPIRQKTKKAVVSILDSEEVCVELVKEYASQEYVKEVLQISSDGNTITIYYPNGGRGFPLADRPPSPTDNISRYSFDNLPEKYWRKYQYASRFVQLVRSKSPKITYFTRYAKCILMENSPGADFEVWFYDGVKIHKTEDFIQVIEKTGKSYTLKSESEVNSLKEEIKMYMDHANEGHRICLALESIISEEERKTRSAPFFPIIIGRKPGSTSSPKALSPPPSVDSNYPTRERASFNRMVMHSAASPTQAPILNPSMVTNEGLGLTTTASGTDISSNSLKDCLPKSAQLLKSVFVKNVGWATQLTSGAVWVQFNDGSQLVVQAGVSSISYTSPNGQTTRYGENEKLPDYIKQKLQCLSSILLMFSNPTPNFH
# [4] = target: Glycogen synthase kinase-3 beta (Homo sapiens, UniProt P49841)
# Sequence of Glycogen synthase kinase-3 beta (P49841 whole entry): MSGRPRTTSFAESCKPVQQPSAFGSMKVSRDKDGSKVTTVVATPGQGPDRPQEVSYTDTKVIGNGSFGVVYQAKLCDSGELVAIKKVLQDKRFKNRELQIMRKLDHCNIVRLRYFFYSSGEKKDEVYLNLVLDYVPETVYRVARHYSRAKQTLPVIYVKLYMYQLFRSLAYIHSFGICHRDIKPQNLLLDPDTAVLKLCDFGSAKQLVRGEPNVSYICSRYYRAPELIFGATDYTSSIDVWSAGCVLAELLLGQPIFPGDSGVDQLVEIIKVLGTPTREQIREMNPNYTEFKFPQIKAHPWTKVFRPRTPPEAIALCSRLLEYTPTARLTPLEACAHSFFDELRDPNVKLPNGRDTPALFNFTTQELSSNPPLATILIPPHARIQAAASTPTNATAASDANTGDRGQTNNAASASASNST
# Insulin receptor = Insulin receptor (Homo sapiens, UniProt P06213)
# Sequence of Insulin receptor (P06213 28-758 limits assumed): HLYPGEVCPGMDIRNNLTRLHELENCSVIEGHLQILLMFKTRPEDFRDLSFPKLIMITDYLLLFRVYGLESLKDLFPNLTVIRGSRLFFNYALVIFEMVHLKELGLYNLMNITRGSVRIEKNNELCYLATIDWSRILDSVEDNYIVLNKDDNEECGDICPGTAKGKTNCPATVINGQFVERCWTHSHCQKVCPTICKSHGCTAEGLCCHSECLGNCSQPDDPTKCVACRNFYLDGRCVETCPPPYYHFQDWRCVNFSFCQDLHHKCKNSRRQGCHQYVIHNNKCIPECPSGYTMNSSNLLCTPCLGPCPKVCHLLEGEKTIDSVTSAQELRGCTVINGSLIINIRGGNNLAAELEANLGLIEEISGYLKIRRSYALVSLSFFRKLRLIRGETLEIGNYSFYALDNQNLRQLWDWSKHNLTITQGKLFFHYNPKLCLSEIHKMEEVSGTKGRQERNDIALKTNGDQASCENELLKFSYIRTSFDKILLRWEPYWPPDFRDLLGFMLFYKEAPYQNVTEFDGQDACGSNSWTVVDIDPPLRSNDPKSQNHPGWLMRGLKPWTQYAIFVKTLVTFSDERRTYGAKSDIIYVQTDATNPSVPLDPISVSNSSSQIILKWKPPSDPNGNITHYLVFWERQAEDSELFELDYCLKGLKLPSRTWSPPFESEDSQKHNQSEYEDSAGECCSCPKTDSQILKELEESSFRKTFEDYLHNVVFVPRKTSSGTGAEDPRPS
# Sequence of Insulin receptor (P06213 763-1382 limits assumed): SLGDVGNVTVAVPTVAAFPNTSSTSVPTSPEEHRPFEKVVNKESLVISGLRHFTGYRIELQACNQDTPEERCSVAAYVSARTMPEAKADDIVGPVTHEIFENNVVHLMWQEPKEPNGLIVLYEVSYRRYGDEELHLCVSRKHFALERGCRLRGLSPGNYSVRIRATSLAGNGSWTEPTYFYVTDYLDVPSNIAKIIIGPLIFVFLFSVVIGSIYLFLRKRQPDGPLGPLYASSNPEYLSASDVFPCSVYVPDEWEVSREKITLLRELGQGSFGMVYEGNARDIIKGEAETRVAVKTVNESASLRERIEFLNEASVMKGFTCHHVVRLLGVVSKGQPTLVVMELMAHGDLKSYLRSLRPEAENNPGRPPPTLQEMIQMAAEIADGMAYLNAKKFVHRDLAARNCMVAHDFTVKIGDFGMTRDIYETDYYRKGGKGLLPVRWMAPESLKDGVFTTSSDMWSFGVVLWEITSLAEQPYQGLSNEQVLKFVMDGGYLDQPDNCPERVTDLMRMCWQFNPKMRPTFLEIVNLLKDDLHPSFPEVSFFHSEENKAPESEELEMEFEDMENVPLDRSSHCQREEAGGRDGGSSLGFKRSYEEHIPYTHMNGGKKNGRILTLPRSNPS
# [5] = target: Dual specificity mitogen-activated protein kinase kinase 1 (Homo sapiens, UniProt Q02750)
# Sequence of Dual specificity mitogen-activated protein kinase kinase 1 (Q02750 whole entry): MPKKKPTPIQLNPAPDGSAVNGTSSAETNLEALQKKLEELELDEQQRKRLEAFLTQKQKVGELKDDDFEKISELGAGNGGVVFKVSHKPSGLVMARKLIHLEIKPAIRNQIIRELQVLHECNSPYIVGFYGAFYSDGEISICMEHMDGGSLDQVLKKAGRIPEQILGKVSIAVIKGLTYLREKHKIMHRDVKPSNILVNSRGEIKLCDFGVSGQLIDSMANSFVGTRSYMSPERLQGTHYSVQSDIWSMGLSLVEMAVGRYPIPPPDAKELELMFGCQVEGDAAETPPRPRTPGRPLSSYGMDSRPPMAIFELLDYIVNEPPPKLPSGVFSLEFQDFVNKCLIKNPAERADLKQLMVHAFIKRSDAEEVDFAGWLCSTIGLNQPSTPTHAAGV
# [6] = target: cAMP-dependent protein kinase catalytic subunit beta (Homo sapiens, UniProt P22694)
# Ephrin type-B receptor 2 = target: T3, Ephrin type-B receptor 2 (Homo sapiens, UniProt P29323)
# T3 sequence (P29323 whole entry): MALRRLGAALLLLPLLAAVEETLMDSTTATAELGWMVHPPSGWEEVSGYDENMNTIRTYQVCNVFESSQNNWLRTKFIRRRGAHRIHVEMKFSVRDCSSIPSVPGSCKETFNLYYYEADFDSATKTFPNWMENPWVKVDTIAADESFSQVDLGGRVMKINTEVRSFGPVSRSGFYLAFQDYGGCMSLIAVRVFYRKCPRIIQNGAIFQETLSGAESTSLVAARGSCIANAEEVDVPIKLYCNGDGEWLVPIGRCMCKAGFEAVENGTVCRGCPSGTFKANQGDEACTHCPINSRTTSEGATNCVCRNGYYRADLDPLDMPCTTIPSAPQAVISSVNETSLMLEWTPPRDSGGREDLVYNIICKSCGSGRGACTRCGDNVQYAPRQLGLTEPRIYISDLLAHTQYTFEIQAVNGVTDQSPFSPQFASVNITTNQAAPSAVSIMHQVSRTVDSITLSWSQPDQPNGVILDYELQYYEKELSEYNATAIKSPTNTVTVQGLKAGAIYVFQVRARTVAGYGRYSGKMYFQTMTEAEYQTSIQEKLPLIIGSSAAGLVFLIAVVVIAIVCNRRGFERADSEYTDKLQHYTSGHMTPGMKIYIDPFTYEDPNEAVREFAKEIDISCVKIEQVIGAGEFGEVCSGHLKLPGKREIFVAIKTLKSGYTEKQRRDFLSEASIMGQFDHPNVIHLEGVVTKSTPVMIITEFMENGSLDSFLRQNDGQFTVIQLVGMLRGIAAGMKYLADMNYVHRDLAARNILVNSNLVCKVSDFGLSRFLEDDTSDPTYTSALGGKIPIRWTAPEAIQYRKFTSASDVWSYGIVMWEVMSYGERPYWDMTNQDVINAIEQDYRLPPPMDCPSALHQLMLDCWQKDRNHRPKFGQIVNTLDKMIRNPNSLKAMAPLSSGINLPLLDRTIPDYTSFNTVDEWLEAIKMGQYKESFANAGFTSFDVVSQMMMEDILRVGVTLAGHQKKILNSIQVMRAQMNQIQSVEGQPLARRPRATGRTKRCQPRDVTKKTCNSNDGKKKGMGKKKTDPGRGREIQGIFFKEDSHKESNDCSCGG
# Sequence of U5 small nuclear ribonucleoprotein 200 kDa helicase (O75643 whole entry): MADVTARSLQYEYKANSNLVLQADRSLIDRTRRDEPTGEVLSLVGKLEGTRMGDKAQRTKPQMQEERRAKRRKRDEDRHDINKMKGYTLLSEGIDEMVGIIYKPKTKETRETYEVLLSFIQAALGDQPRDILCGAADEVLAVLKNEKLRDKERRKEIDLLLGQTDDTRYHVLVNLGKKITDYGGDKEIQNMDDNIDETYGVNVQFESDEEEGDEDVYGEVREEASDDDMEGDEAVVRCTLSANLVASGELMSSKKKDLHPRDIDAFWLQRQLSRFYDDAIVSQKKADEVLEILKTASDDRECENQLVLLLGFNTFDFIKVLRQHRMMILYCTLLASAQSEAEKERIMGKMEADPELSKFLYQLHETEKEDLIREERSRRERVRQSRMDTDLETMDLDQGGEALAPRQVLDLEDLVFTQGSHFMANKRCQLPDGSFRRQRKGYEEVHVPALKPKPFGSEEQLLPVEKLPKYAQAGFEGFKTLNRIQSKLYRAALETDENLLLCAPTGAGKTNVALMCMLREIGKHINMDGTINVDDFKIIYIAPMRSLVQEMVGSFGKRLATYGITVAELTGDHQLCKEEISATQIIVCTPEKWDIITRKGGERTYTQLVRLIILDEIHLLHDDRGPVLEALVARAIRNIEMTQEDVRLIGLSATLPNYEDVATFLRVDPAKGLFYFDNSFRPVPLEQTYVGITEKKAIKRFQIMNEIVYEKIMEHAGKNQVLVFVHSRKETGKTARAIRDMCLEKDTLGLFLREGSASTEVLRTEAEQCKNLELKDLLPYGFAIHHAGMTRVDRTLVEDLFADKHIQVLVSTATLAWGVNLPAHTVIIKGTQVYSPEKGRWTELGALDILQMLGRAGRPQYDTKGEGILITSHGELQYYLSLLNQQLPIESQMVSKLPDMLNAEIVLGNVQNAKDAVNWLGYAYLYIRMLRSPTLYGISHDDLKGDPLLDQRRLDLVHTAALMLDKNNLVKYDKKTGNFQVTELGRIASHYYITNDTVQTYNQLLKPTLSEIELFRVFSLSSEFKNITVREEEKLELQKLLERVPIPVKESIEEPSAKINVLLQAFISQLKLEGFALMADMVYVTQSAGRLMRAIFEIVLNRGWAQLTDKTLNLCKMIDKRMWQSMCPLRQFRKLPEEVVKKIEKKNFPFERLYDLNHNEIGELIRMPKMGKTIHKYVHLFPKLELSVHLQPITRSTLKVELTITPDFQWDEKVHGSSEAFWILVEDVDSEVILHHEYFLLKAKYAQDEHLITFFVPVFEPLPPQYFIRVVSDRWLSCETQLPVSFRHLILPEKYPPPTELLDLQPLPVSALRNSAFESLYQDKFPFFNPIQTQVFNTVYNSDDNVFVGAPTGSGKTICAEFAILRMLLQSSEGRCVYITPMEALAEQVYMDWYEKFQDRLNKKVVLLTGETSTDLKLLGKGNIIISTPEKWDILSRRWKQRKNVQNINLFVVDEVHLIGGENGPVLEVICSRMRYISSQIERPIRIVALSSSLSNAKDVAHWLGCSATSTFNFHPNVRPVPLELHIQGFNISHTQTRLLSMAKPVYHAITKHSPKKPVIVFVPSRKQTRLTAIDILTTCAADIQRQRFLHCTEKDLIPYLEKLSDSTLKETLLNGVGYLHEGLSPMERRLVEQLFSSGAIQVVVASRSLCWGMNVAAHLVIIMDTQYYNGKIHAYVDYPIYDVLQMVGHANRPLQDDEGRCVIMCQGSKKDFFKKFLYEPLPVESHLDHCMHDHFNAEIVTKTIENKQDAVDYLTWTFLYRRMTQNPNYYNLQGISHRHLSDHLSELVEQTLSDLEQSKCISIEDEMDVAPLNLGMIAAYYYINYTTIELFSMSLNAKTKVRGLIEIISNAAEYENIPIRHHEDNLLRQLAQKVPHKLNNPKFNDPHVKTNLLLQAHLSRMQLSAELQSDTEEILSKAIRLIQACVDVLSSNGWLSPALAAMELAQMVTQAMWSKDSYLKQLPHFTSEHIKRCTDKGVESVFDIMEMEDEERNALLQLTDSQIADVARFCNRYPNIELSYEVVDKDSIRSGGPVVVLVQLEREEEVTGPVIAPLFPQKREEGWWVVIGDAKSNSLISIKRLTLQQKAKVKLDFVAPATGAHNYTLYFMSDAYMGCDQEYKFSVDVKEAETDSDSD
Kd [1],Kd (ADP/ATP translocase 2),Kd [2],Kd [3],Kd [4],Kd (Insulin receptor),Kd [5],Kd [6],Kd (Ephrin type-B receptor 2),SMILES
> 30 µM (inactive),> 30 µM (inactive),> 30 µM (inactive),> 30 µM (inactive),> 30 µM (inactive),> 30 µM (inactive),> 30 µM (inactive),> 30 µM (inactive),> 30 µM (inactive),N[C@@H]1CCCN(c2c(/C=C3\SC(=O)NC3=O)cccc2-c2ccccc2)C1
> 30 µM (inactive),> 30 µM (inactive),> 30 µM (inactive),> 30 µM (inactive),> 30 µM (inactive),> 30 µM (inactive),> 30 µM (inactive),> 30 µM (inactive),> 30 µM (inactive),Cc1ccc(S(=O)(=O)Nc2nc3ccccc3nc2Nc2ccc3nsnc3c2)cc1
> 30 µM (inactive),> 30 µM (inactive),> 30 µM (inactive),> 30 µM (inactive),> 30 µM (inactive),> 30 µM (inactive),> 30 µM (inactive),> 30 µM (inactive),> 30 µM (inactive),CCN1CCN(Cc2ccc(-c3cc4c(N[C@H](C)c5ccccc5)ncnc4[nH]3)cc2)CC1 [AEE-788]
> 30 µM (inactive),> 30 µM (inactive),> 30 µM (inactive),0.07 µM (active),> 30 µM (inactive),7.91 µM (active),> 30 µM (inactive),> 30 µM (inactive),> 30 µM (inactive),COc1cc(N2CCC(N3CCN(C)CC3)CC2)ccc1Nc1ncnc(Nc2ccccc2S(=O)(=O)C(C)C)n1 [ASP-3026]
> 30 µM (inactive),> 30 µM (inactive),> 30 µM (inactive),> 30 µM (inactive),> 30 µM (inactive),> 30 µM (inactive),> 30 µM (inactive),> 30 µM (inactive),> 30 µM (inactive),COc1cc(CCc2cc(NC(=O)c3ccc(N4C[C@@H](C)N[C@@H](C)C4)cc3)n[nH]2)cc(OC)c1 [AZD-4547]
> 30 µM (inactive),> 30 µM (inactive),> 30 µM (inactive),> 30 µM (inactive),> 30 µM (inactive),> 30 µM (inactive),> 30 µM (inactive),> 30 µM (inactive),> 30 µM (inactive),Cc1cc([C@@H](C)Nc2ccccc2C(=O)O)c2nc(N3CCOCC3)cc(=O)n2c1 [AZD-6482]
> 30 µM (inactive),> 30 µM (inactive),> 30 µM (inactive),> 30 µM (inactive),> 30 µM (inactive),> 30 µM (inactive),> 30 µM (inactive),> 30 µM (inactive),> 30 µM (inactive),COc1ccc(-c2ccc3c(N4CCOC[C@@H]4C)nc(N4CCOC[C@@H]4C)nc3n2)cc1CO [AZD-8055]
> 30 µM (inactive),> 30 µM (inactive),> 30 µM (inactive),> 30 µM (inactive),> 30 µM (inactive),> 30 µM (inactive),> 30 µM (inactive),> 30 µM (inactive),> 30 µM (inactive),C[C@@H](Nc1cc(F)cc(F)c1)c1cc(C(=O)N(C)C)cc2c(=O)cc(N3CCOCC3)oc12 [AZD-8186]
> 30 µM (inactive),> 30 µM (inactive),> 30 µM (inactive),> 30 µM (inactive),> 30 µM (inactive),> 30 µM (inactive),> 30 µM (inactive),> 30 µM (inactive),53.2 µM (active),Cc1ccc(NC(=O)c2ccc(CN3CC[C@H](N(C)C)C3)c(C(F)(F)F)c2)cc1Nc1nccc(-c2cncnc2)n1 [BAFETINIB]
> 30 µM (inactive),> 30 µM (inactive),> 30 µM (inactive),> 30 µM (inactive),> 30 µM (inactive),> 30 µM (inactive),> 30 µM (inactive),> 30 µM (inactive),> 30 µM (inactive),CCS(=O)(=O)N1CC(CC#N)(n2cc(-c3ncnc4[nH]ccc34)cn2)C1 [BARICITINIB]
> 30 µM (inactive),> 30 µM (inactive),> 30 µM (inactive),> 30 µM (inactive),> 30 µM (inactive),> 30 µM (inactive),> 30 µM (inactive),> 30 µM (inactive),> 30 µM (inactive),Cc1cc2c(F)c(Oc3ncnn4cc(OC[C@@H](C)OC(=O)[C@H](C)N)c(C)c34)ccc2[nH]1 [BRIVANIB ALANINATE]
> 30 µM (inactive),> 30 µM (inactive),> 30 µM (inactive),> 30 µM (inactive),0.425 µM (active),> 30 µM (inactive),> 30 µM (inactive),> 30 µM (inactive),> 30 µM (inactive),COC(=O)N[C@@H](C)CNc1nccc(-c2cn(C(C)C)nc2-c2cc(Cl)cc(NS(C)(=O)=O)c2F)n1 [ENCORAFENIB]

SMILES,Kd [1],Kd (ADP/ATP translocase 2),Kd [2],Kd [3],Kd [4],Kd (Insulin receptor),Kd [5],Kd [6],Kd (Ephrin type-B receptor 2)
CN1CC[C@@H](c2c(O)cc(O)c3c(=O)cc(-c4ccccc4Cl)oc23)[C@@H]1CO,> 30 µM (inactive),> 30 µM (inactive),> 30 µM (inactive),> 30 µM (inactive),2.72 µM (active),> 30 µM (inactive),> 30 µM (inactive),> 30 µM (inactive),> 30 µM (inactive)
Cc1cc(-c2cc(O)ccc2Cl)cc2nnc(Nc3ccc(OCCN4CCCC4)cc3)nc12,> 30 µM (inactive),> 30 µM (inactive),> 30 µM (inactive),> 30 µM (inactive),> 30 µM (inactive),> 30 µM (inactive),> 30 µM (inactive),> 30 µM (inactive),0.002 µM (active)
O=C(c1ccc(F)c(F)c1Nc1ccc(I)cc1F)N1CC(O)([C@@H]2CCCCN2)C1 [COBIMETINIB],> 30 µM (inactive),> 30 µM (inactive),> 30 µM (inactive),> 30 µM (inactive),> 30 µM (inactive),> 30 µM (inactive),0.309 µM (active),> 30 µM (inactive),> 30 µM (inactive)
